Test results published in article PMC4002121, “Trimethylation of Histone H3 Lysine 36 by Human Methyltransferase PRDM9 Protein” (The Journal of Biological Chemistry, 2014).
Entries after “also recorded” stand apart in the source; their conditions may differ.

Tests used:
[1] = target: T1, PRDM9 (Homo sapiens, UniProt Q9NQV7); test: Isothermal titration calorimetry (ITC) binding to PRDM9; settings: AdoMet 1 mM injected into 50 μM PRDM9, 25 °C, 20 mM Tris-HCl pH 8.5, one-binding site model
T1 construct: The wild-type PRDM9 gene (amino acids 195–385) was amplified by PCR; His tag (cleaved yes); made in house; host or cells: E. coli BL21(DE3)pRARE2-V2R
T1 sequence (Q9NQV7 195-385): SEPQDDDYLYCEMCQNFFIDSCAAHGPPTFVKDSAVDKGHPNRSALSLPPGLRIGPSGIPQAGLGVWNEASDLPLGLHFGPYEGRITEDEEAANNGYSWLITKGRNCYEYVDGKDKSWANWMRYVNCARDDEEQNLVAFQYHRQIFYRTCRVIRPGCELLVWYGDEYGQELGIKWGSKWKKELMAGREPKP
Procedure: Purified PRMD9 was dialyzed overnight in 20 mM Tris-HCl buffer, pH 8.5. […] ITC titrations were performed on a VP-ITC Micro Calorimeter from GE Healthcare at 25 °C by using 10-μl injections with a total of 25 injections. Data were fitted with a one-binding site model using Microcal Origin software.
FIGURE 7. […] Experiments were performed in duplicate.

[2] = target: T1, PRDM9; test: Assay optimization: effect of pH, salt and additives on PRDM9 activity; assay type: biochemical
Procedure: Samples were incubated for 1 h at 23 °C and reactions were quenched by addition of 20 μl of 7.5 M guanidinium hydrochloride followed by addition of 160 μl of 20 mM Tris-HCl buffer, pH 8.0. Samples were added to wells of a streptavidin/scintillant-coated microplate (FlashPlate® PLUS: PerkinElmer Life Sciences).
FIGURE 3.

[3] = target: T1, PRDM9; test: Screening PRDM9 against known histone methyltransferase inhibitor library; assay type: biochemical; settings: 2.5 μM H3K36me2 peptide, 62 μM AdoMet, 1 nM PRDM9, 10 mM Tris-HCl pH 8.5, 10 mM DTT, 0.01% Triton X-100, 1% DMSO, 30 min, 23 °C; triplicate
Procedure: The Z-factor was determined to ensure the optimized assay was amenable to high-throughput screening in a 384-well format ([46]). […] PRDM9 was then screened against a small library of known histone methyltransferase inhibitors using H3K36me2 as substrate under optimized assay conditions. In this assay, 1 nM PRDM9 was incubated with 2.5 μM H3K36me2 peptide, 62 μM AdoMet in a reaction buffer (10 mM Tris-HCl, pH 8.5, 10 mM DTT, 0.01% Triton X-100) along with compounds ranging in concentrations from 0 to 100 μM, with a final DMSO concentration of 1%. Reactions were incubated at 23 °C for 30 min. The IC50 value was determined for suramin using SigmaPlot.
FIGURE 5. […] Experiments were performed in triplicate as described under “Experimental Procedures.”

[4] = tested on: PRDM9; settings: cited from earlier work
Text: Although PRDM9 H3K4 methyltransferase activity has been previously reported ([28]), to our knowledge its activity and substrate specificity have not been fully characterized. […] Our binding data also indicated tight H3K4 peptide binding (low micromolar). Previously, Hayashi et al. ([28]) reported that GST-PRDM9 specifically catalyzed met ...

[5] = target: T1, PRDM9; test: PRDM9 substrate specificity, radioactivity-based histone peptide methylation assay; assay type: biochemical; settings: 10 μM biotinylated peptide, 200 μM AdoMet, 1 nM PRDM9, 10 mM Tris-HCl pH 8.5, 0.01% Triton X-100, 10 mM DTT, 30 min, 23 °C; n = 4
Procedure: In this assay [^3H]AdoMet (PerkinElmer Life Sciences; catalog number NET155V250UC) was used as a methyl donor to methylate biotinylated histone peptide substrates. […] Samples were incubated for 30 min at 23 °C and the reaction was quenched by addition of 20 μl of 7.5 M guanidinium hydrochloride followed by addition of 160 μl of 20 mM Tris-HCl buffer, pH 8.0. Samples were added to wells of a streptavidin/scintillant-coated microplate (FlashPlate® PLUS; PerkinElmer Life Sciences). Biotinylated peptides would be captured in each well through their interaction with streptavidin, thereby bringing any incorporated [^3H]methyl in proximity of scintillant.
FIGURE 1. […] Data are presented as mean ± S.D. from four experiments.

[6] = tested on: HEK293 cells; test: H3K4 and H3K36 methylation in HEK293 cells overexpressing PRDM9, immunoblotting; assay type: cell-based, human; settings: normalized to total H3
Procedure: A FLAG-tagged control vector or FLAG-tagged PRDM9 construct were transfected into HEK293 cells using GeneJuice (Novagen). Transfected cells were serum-deprived prior to lysis in 50 mM Tris-HCl, 400 mM NaCl, 1 mM EDTA, 0.1% SDS, and 1% Triton X-100 supplemented with protease inhibitors. 30 μg of total cell lysate were processed for Western blotting and immunoblotted using specific antibodies to monitor the levels of H3K36me1 (Abcam, ab9048), H3K36me2 (Cell signaling Technology, 2901), H3K36me3 (Cell Signaling Technology, number 9763), H3K4me1 (Cell Signaling Technology, 9723), H3K4me2 (Abcam, ab32356), H3K4me3 (Cell Signaling Technology, number 9727S), and total H3 (Abcam, ab10799). The transfection efficiency of FLAG-PRDM9 was controlled by using an anti-FLAG antibody (FLAG M2 monoclonal, Sigma). Membrane bands were visualized using LiCor IRDye, 680RD anti-rabbit and 800CW anti-mouse secondary antibodies.
FIGURE 8. Trimethylation of H3K4 and H3K36 by PRDM9 in cells. […] Methylation levels of Lys-4 and Lys-36 were quantified and normalized to their respective total H3 levels. FLAG-PRDM9-transfected samples were normalized to samples transfected with FLAG Control vector. IB, immunoblot; CTL, control.

[7] = tested on: sterile mouse hybrids; settings: via baculovirus; cited from earlier work
Text: PRDM9 is a PR domain-containing protein with multiple zinc fingers that catalyze trimethylation of H3K4 ([28]). It is a meiosis-specific protein that has been reported to control activation of the short highly recombinogenic segments called recombination hot spots ([50]). The H3K4me3 mark is often associated with transcriptional activation ([51], [52]) and DNA repair ([53]). This methyl mark is also associated with recombination hot spot initiation in yeast and mice ([35], [36]) where double strand breaks occur prior to crossover events. However, H3K4me3 marks associated with hot spots are dis ...

[8] = H3-(1–25) substrate 10 μM, 40 μM AdoMet, 100 nM PRDM9, 10 mM Tris-HCl pH 8.5, 1 h, 23 °C, n = 4
[9] = H3-(1–25) substrate, 10 mM Tris-HCl pH 8.5

C[S+](CC[C@H](N)C(=O)[O-])C[C@H]1O[C@@H](n2cnc3c(N)ncnc32)[C@H](O)[C@@H]1O (stereo partly shown) [AdoMet, S-adenosylmethionine]
Kd [1]: 18.6 µM

C[S+](C)[O-] [DMSO, dimethyl sulfoxide]
effect on PRDM9 activity (in words) [2, 8]: maintained high levels of activity at all concentrations of DMSO
DMSO concentration of maximum PRDM9 activity [2, 9]: 0.16%

O[C@@H](CS)[C@@H](O)CS [DTT]
effect on PRDM9 activity (in words) [2, 8]: increase in enzyme activity
concentration of maximal PRDM9 activity (reducing agent) [2, 9]: 10 mM

[Cl-].[Na+] [NaCl]
NaCl concentration above which enzyme activity was abolished [2, 8]: above 125 mM
effect on PRDM9 activity (in words) [2, 8]: sharp decrease in activity with increasing NaCl concentrations

O=C(O)CCP(CCC(=O)O)CCC(=O)O [TCEP, Tris(2-carboxyethyl)phosphine]
effect on PRDM9 activity (in words) [2, 8]: sharp decrease in activity at increasing TCEP concentrations
concentration of maximal PRDM9 activity (reducing agent) [2, 9]: 0.6 mM

Cc1ccc(C(=O)Nc2ccc(S(=O)(=O)O)c3cc(S(=O)(=O)O)cc(S(=O)(=O)O)c23)cc1NC(=O)c1cccc(NC(=O)Nc2cccc(C(=O)Nc3cc(C(=O)Nc4ccc(S(=O)(=O)O)c5cc(S(=O)(=O)O)cc(S(=O)(=O)O)c45)ccc3C)c2)c1 [suramin]
IC50 [3]: 4.1 ± 0.1 µM

H3-(26–45): histone H3-(26–45) peptide on a peptide array
binding of PRDM9 to peptide on a peptide array (in words) [4]: Binding

H3K36A: H3-(21–44) peptide with Lys-36 mutated to alanine
PRDM9 methyltransferase activity with substrate (in words) [5]: not when Lys-36 was trimethylated or mutated to alanine

K4A: K4A mutant of H3-(1–25) peptide
PRDM9 methyltransferase activity with substrate (in words) [5]: No activity

K4AK9A: K4AK9A mutant of H3-(1–25) peptide
PRDM9 methyltransferase activity with substrate (in words) [5]: No activity

PRDM9: PR domain-containing protein 9, histone methyltransferase; FLAG-tagged in cells, residues 195–385 in vitro
mono- or dimethylation of H3K4 and H3K36 in cells (in words) ([6]; HEK293 cells overexpressing PRDM9): not mono- or dimethylation of either mark
trimethylation of H3K4 and H3K36 in cells (in words) ([6]; HEK293 cells transfected with FLAG-PRDM9 vs FLAG control vector): significant increase in trimethylation of H3K4 and H3K36; also recorded: significant increase in H3K36 trimethylation as well as H3K4 trimethylation
effect on sterile phenotype of mouse hybrids (in words) [7]: rescued the sterile phenotype

Triton X-100
effect on PRDM9 activity (in words) [2, 8]: Higher concentrations of Triton X-100 up to 0.25% did not further increase the activity
Triton X-100 concentration that dramatically improved signal to noise ratio ([2]; concentrations as low as, H3-(1–25) substrate, 10 mM Tris-HCl pH 8.5): ≥ 0.004%
